“And” between values parts separate entries of the source, which are not always exact repeats. Equal entries are not always repeated.
Experiment: Shake-flask solubility with spectrophotometric measurement in aqueous DES mixtures
Assay type: physicochemical
Conditions: for Increase in the solubility compared to the neat DES: 25 °C
Description: In order to determine the solubility of the three studied phenolic acids in deep eutectic solvents, a very well-established shake-flask method coupled with spectrophotometric measurements was utilized. The initial procedure involved the preparation of various DESs, which was conducted by mixing their HBA and HBD counterparts in a glass vessel and heating the composition until the formation of a transparent, uniform liquid. […] For additional measurements, the DESs were mixed with water in varying proportions, creating aqueous DES systems. Saturated solutions of CAF, SYR, and COU were obtained by adding excess amounts of these compounds to test tubes containing either a neat deep eutectic solvent or its aqueous solution. Such samples were placed in the Orbital Shaker Incubator ES-20/60 from Biosan (Riga, Latvia) and heated for 24 h at 25 °C, 30 °C, 35 °C, and 40 °C (±0.1 °C) with simultaneous mixing at 60 rpm. Before measurements, the samples were filtered using a PTFE syringe filter from Qpore (Dallas, TX, USA) with a 0.22 μm pore size. In order to avoid possible precipitation of the saturated solutions at decreased temperatures, the test tubes, syringes, pipette tips, and filters were kept at a temperature identical to that of the samples. The spectrophotometric measurements required the preparation of calibration curves for the three APIs. This involved the preparation of a stock solution of each compound in methanol, which was later successfully diluted, and the obtained solutions of varying concentrations were measured using an A360 spectrophotometer from AOE Instruments (Shanghai, China). The wavelength range was set to 200-500 nm, and the resolution was 1 nm. The analytical wavelengths were determined to be 324 nm for caffeic acid, 273 nm for syringic acid, and 308 nm for p-coumaric acid. The final regression equations, obtained after averaging three distinct sets of measurements, are collected in Table 2 together with determination coefficients and limits of detection (LOD) and quantification (LOQ) for the calibration curves. The measurements of the samples were conducted with the same spectrophotometer and identical settings. Methanol was used for the dilution of the samples so that they could remain within the linearity range of the method. Complete spectra of the samples were recorded, but for the solubility determination, the absorbance values at a specific analytical wavelength were considered. These values were combined with the corresponding regression equations of the calibration curves and served for the calculation of the concentration of the three phenolic acids in the studied samples. The densities of such samples were also measured, and for this task 1 mL of each sample was weighed to a precision of 0.1 mg using an AS 110 R2.PLUS analytical balance from […] (Radom, Poland). The obtained densities enabled the calculation of mole fractions of CAF, SYR, and COU dissolved in the studied DESs. For each considered system, three distinct measurements were conducted, and the results were averaged.

Mole fraction solubility (Bet – TEG 1:2 + water, x*DES 0.9, 30°C): 0.0941±0.0005 mole fraction | Mole fraction solubility (Bet – TEG 1:2 + water, x*DES 0.9, 35°C): 0.1123±0.0012 mole fraction | Mole fraction solubility (Bet – TEG 1:2 + water, x*DES 0.9, 40°C): 0.1364±0.0011 mole fraction | Mole fraction solubility (Bet – TEG 1:2, x*DES 1.0 (neat DES), 25°C): 0.0755±0.0010 mole fraction | Mole fraction solubility (Bet – TEG 1:2, x*DES 1.0 (neat DES), 30°C): 0.0844±0.0011 mole fraction | Mole fraction solubility (Bet – TEG 1:2, x*DES 1.0 (neat DES), 35°C): 0.0989±0.0012 mole fraction | Mole fraction solubility (Bet – TEG 1:2, x*DES 1.0 (neat DES), 40°C): 0.1215±0.0012 mole fraction | Increase in the solubility compared to the neat DES (Bet-TEG 1:2, x*DES = 0.9 (xwater = 0.1)): 9% | Mole fraction solubility (ChCl – TEG 1:2 + water, x*DES 0.1, 25°C): 0.0098±0.0001 mole fraction | Mole fraction solubility (ChCl – TEG 1:2 + water, x*DES 0.1, 30°C): 0.0125±0.0001 mole fraction | Mole fraction solubility (ChCl – TEG 1:2 + water, x*DES 0.1, 35°C): 0.0162±0.0001 mole fraction | Mole fraction solubility (ChCl – TEG 1:2 + water, x*DES 0.1, 40°C): 0.0211±0.0001 mole fraction | Mole fraction solubility (ChCl – TEG 1:2 + water, x*DES 0.2, 25°C): 0.0184±0.0002 mole fraction | Mole fraction solubility (ChCl – TEG 1:2 + water, x*DES 0.2, 30°C): 0.0233±0.0002 mole fraction | Mole fraction solubility (ChCl – TEG 1:2 + water, x*DES 0.2, 35°C): 0.0321±0.0001 mole fraction | Mole fraction solubility (ChCl – TEG 1:2 + water, x*DES 0.2, 40°C): 0.0432±0.0002 mole fraction | Mole fraction solubility (ChCl – TEG 1:2 + water, x*DES 0.3, 25°C): 0.0292±0.0002 mole fraction | Mole fraction solubility (ChCl – TEG 1:2 + water, x*DES 0.3, 30°C): 0.0366±0.0003 mole fraction | Mole fraction solubility (ChCl – TEG 1:2 + water, x*DES 0.3, 35°C): 0.0492±0.0002 mole fraction | Mole fraction solubility (ChCl – TEG 1:2 + water, x*DES 0.3, 40°C): 0.0665±0.0004 mole fraction | Mole fraction solubility (ChCl – TEG 1:2 + water, x*DES 0.4, 25°C): 0.0381±0.0003 mole fraction | Mole fraction solubility (ChCl – TEG 1:2 + water, x*DES 0.4, 30°C): 0.0481±0.0003 mole fraction | Mole fraction solubility (ChCl – TEG 1:2 + water, x*DES 0.4, 35°C): 0.0652±0.0003 mole fraction | Mole fraction solubility (ChCl – TEG 1:2 + water, x*DES 0.4, 40°C): 0.0893±0.0002 mole fraction | Mole fraction solubility (ChCl – TEG 1:2 + water, x*DES 0.5, 25°C): 0.0491±0.0004 mole fraction | Mole fraction solubility (ChCl – TEG 1:2 + water, x*DES 0.5, 30°C): 0.0612±0.0003 mole fraction | Mole fraction solubility (ChCl – TEG 1:2 + water, x*DES 0.5, 35°C): 0.0841±0.0005 mole fraction | Mole fraction solubility (ChCl – TEG 1:2 + water, x*DES 0.5, 40°C): 0.1208±0.0009 mole fraction | Mole fraction solubility (ChCl – TEG 1:2 + water, x*DES 0.6, 25°C): 0.0593±0.0005 mole fraction | Mole fraction solubility (ChCl – TEG 1:2 + water, x*DES 0.6, 30°C): 0.0754±0.0003 mole fraction | Mole fraction solubility (ChCl – TEG 1:2 + water, x*DES 0.6, 35°C): 0.1040±0.0006 mole fraction | Mole fraction solubility (ChCl – TEG 1:2 + water, x*DES 0.6, 40°C): 0.1464±0.0014 mole fraction | Mole fraction solubility (ChCl – TEG 1:2 + water, x*DES 0.7, 25°C): 0.0715±0.0007 mole fraction | Mole fraction solubility (ChCl – TEG 1:2 + water, x*DES 0.7, 30°C): 0.0924±0.0007 mole fraction | Mole fraction solubility (ChCl – TEG 1:2 + water, x*DES 0.7, 35°C): 0.1254±0.0014 mole fraction | Mole fraction solubility (ChCl – TEG 1:2 + water, x*DES 0.7, 40°C): 0.1718±0.0012 mole fraction | Mole fraction solubility (ChCl – TEG 1:2 + water, x*DES 0.8, 25°C): 0.0827±0.0009 mole fraction | Mole fraction solubility (ChCl – TEG 1:2 + water, x*DES 0.8, 30°C): 0.1080±0.0013 mole fraction | Mole fraction solubility (ChCl – TEG 1:2 + water, x*DES 0.8, 35°C): 0.1418±0.0015 mole fraction | Mole fraction solubility (ChCl – TEG 1:2 + water, x*DES 0.8, 40°C): 0.1910±0.0018 mole fraction | Mole fraction solubility (ChCl – TEG 1:2 + water, x*DES 0.9, 30°C): 0.1116±0.0017 mole fraction | Mole fraction solubility (ChCl – TEG 1:2 + water, x*DES 0.9, 35°C): 0.1479±0.0013 mole fraction | Mole fraction solubility (ChCl – TEG 1:2 + water, x*DES 0.9, 40°C): 0.1964±0.0019 mole fraction | Mole fraction solubility (ChCl – TEG 1:2, x*DES 1.0 (neat DES), 25°C): 0.0835±0.0010 mole fraction | Mole fraction solubility (ChCl – TEG 1:2, x*DES 1.0 (neat DES), 30°C): 0.1032±0.0014 mole fraction | Mole fraction solubility (ChCl – TEG 1:2, x*DES 1.0 (neat DES), 35°C): 0.1364±0.0007 mole fraction | Mole fraction solubility (ChCl – TEG 1:2, x*DES 1.0 (neat DES), 40°C): 0.1928±0.0017 mole fraction | Increase in the solubility compared to the neat DES (ChCl-TEG 1:2, x*DES = 0.9 (xwater = 0.1)): 2% | Solubility increase between 25 °C and 40 °C (neat DES (x*DES = 1.0) involving betaine (Bet-TEG 1:2)): 161% | Solubility increase between 25 °C and 40 °C (neat DES (x*DES = 1.0) with choline chloride (ChCl-TEG 1:2)): 231%
Compound: O=C(O)C=Cc1ccc(O)c(O)c1 [caffeic acid, 3,4-dihydroxycinnamic acid]
Mole fraction solubility (ChCl – TEG 1:2 + water, x*DES 0.9, 25°C): 0.0851 mole fraction and 0.0851±0.0005 mole fraction
